Test results as given in the CheMixHub drug solubility set.

Experiment: xn = mol fraction of the nth substance listed, in the solute-free solvent

CN1CCC(N(Cc2cccs2)c2ccccc2)CC1 + CC(C)O + O
solubility (g/100 g solution)
Conditions	278.15 K	283.15 K	288.15 K	293.15 K	298.15 K	303.15 K	308.15 K	313.15 K	318.15 K	323.15 K
x2 = 0.03225	0.141	0.15	0.16	0.173	0.19	0.208	0.229	0.249	0.274	0.301
x2 = 0.06974	0.326	0.345	0.365	0.394	0.428	0.466	0.508	0.551	0.601	0.656
x2 = 0.1139	0.573	0.606	0.64	0.689	0.746	0.809	0.879	0.952	1.03	1.13
x2 = 0.1666	0.834	0.881	0.933	1.01	1.09	1.18	1.28	1.39	1.51	1.64
x2 = 0.2307	1.04	1.1	1.18	1.28	1.4	1.51	1.64	1.78	1.95	2.12
x2 = 0.3103	1.24	1.33	1.43	1.54	1.67	1.81	1.96	2.11	2.3	2.52
x2 = 0.4117	1.4	1.51	1.62	1.75	1.93	2.12	2.32	2.54	2.77	3.04
x2 = 0.5454	1.55	1.68	1.82	1.99	2.15	2.34	2.58	2.83	3.11	3.42
x2 = 0.7297	1.61	1.77	1.95	2.14	2.35	2.6	2.85	3.13	3.41	3.74

Cc1ccc2cc(Br)ccc2n1 + CCO + O
solubility (g/100 g solution)
Conditions	278.15 K	283.15 K	288.15 K	293.15 K	298.15 K	303.15 K	308.15 K	313.15 K	318.15 K	323.15 K
x2 = 0.04165	0.0289	0.0336	0.0393	0.0455	0.0528	0.0607	0.0707	0.0816	0.0939	0.108
x2 = 0.08908	0.0673	0.0777	0.0902	0.103	0.119	0.137	0.158	0.181	0.207	0.237
x2 = 0.1436	0.119	0.137	0.159	0.181	0.209	0.239	0.276	0.315	0.359	0.411
x2 = 0.2068	0.176	0.203	0.234	0.267	0.308	0.354	0.408	0.466	0.53	0.607
x2 = 0.2812	0.218	0.26	0.304	0.347	0.4	0.46	0.535	0.61	0.695	0.798
x2 = 0.3698	0.266	0.313	0.373	0.43	0.501	0.579	0.667	0.762	0.873	1.01
x2 = 0.4772	0.308	0.37	0.442	0.521	0.603	0.705	0.819	0.935	1.07	1.24
x2 = 0.6101	0.356	0.425	0.505	0.593	0.693	0.812	0.948	1.09	1.27	1.47
x2 = 0.7788	0.399	0.477	0.569	0.67	0.785	0.925	1.08	1.25	1.44	1.66
